# Experimental data taken from patent US7351701B2, “Therapeutic compounds” (Cancer Research Technology Limited, priority 2004, dated 2008).
# Read-outs that look alike come from different tables or passages of the source.
# Key:
# PARP [1] = molecular target: T1, PARP (Mus musculus, UniProt P11103); experiment: PARP activity assay in digitonin-permeabilised L1210 cells; assay type: cell-based; design: endogenous in cells; host or cells: L1210 cells, digitonin-permeabilised; conditions: L1210 cells permeabilised prior to adding the inhibitor
# T1 sequence (P11103 whole entry): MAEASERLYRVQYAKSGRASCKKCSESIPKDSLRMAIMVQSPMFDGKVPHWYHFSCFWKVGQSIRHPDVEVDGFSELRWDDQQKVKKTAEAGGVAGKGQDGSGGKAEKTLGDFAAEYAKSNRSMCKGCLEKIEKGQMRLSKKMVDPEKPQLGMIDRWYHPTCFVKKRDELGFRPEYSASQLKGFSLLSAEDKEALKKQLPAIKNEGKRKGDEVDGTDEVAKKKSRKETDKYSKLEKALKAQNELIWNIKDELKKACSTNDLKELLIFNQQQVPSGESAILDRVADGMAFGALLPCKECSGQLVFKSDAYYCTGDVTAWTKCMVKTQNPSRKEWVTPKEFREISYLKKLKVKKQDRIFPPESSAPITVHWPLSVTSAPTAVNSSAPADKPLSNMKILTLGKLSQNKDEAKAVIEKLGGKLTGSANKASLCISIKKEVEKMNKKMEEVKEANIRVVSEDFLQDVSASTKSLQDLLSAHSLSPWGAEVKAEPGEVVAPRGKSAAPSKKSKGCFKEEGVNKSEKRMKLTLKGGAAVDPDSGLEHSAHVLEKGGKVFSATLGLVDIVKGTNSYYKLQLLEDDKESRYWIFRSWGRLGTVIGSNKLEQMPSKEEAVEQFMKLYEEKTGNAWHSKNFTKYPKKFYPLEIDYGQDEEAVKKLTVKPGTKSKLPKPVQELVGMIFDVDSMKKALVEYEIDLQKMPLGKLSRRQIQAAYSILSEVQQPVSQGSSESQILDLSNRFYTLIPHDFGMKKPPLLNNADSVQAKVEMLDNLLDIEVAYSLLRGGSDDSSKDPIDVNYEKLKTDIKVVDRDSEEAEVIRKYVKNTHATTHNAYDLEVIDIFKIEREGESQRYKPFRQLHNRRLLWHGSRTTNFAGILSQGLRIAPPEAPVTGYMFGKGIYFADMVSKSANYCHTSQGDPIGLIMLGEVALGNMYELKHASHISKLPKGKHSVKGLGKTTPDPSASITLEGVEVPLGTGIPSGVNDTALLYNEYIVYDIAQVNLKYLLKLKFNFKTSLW
# Protocol: (§1) Exponentially growing cells were exposed to 1% DMSO in culture medium (control) or a compound of formula I or III in 1% DMSO at the concentrations indicated in FIG. 4 to cells permeabilised with digitonin, or intact cells for 20 minutes prior to washing and digitonin-permeabilization. PARP activity was measured by incorporation of a [32P] labelled NAD+ substrate into TCA precipitateble polymers after stimulation by the addition of a blunt-ended oligonucleotide and compared with non-oligonucleotide-stimulated cells. PARP activity in tumour homogenates (1 in 40 in isotonic buffer) from formula III-treated mice was measured in the same way. PARP activity in pbls and tumour homogenates from formula I-phospate treated mice was measured by immunological detection of polymer using the 10H antibody. Briefly, tumour homogenates diluted to up to 1:1000 in isotonic buffer were incubated with 350 μM NAD for 6 min and blotted onto nitrocellulose membrane. The poly(ADP-ribose) (PAR) polymer formation was quantified by chemiluminescence detection using a Fuji LAS3000 UV Illuminator by reference to serial dilutions of a PAR standard, following incubation with 10H antibody to PAR and a secondary anti-mouse antibody.
# PARP [2] = molecular target: T2, PARP (Homo sapiens, UniProt P09874); experiment: PARP activity in SW620 xenograft tumour homogenates from formula III-treated mice ([32P] NAD+ incorporation); assay type: in vivo; conditions: 10 mg/kg intraperitoneal
# T2 construct: PARP activity in tumour homogenates (1 in 40 in isotonic buffer) from formula III-treated mice; from tissue; host or cells: homogenates of SW620 xenograft tumours grown in mice
# T2 sequence (P09874 whole entry): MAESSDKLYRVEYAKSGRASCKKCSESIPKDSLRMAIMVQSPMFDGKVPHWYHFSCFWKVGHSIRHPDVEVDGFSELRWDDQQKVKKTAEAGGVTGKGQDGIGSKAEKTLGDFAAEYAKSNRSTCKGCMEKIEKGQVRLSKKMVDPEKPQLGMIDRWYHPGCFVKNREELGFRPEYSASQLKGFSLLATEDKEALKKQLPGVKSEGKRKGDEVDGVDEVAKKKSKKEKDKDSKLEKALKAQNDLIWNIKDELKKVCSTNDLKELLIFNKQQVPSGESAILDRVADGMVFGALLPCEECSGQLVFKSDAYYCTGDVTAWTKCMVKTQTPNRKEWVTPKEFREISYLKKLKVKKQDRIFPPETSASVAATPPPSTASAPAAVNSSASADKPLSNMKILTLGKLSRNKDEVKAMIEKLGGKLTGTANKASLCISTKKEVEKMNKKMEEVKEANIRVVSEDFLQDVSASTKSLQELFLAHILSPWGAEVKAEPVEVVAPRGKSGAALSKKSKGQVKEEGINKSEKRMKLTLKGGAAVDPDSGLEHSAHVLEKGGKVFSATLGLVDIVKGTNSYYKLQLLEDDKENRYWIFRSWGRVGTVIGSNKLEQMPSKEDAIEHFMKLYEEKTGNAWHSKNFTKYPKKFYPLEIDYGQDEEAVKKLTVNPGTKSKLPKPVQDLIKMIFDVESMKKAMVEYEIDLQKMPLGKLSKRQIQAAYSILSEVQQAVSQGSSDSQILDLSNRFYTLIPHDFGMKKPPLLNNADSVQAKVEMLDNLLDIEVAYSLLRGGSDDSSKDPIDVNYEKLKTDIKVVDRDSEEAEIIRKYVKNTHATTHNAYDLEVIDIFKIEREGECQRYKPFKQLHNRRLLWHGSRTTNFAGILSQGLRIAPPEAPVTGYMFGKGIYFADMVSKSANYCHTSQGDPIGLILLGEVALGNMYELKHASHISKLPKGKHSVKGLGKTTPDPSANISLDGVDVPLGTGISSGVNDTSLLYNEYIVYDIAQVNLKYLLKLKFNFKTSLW
# Protocol: FIG. 7 is a bar chart showing the pharmacokinetics and pharmacodynanics with formula III in mice bearing SW620 xenografts;
# as §1, with “antibody. […]” for “antibody. Briefly, tumour homogenates diluted to up to 1:1000 in isotonic buffer were incubated with 350 μM NAD for 6 min and blotted onto nitrocellulose membrane.”, “antibody. The results were standardised by reference to the measured protein content of the homogenate.” for “antibody.”
# SW620 xenografts = experiment: Tumour growth (median relative tumour volume) in mice bearing SW620 xenografts; assay type: in vivo
# Text: FIG. 8 is a graph showing the tumour growth (median relative tumour volume) in mice bearing SW620 xenografts following treatment with formula III in combination with temozolomide (TMZ) and with TMZ alone;
# FIG. 9 is a graph showing the tumour growth (median relative tumour volume) of mice bearing SW620 xenografts following treatment with formula I-phosphate in combination with temozolomide (TMZ) and with formula I-phosphate and TMZ alone;
# However, shortly after this time the tumour size begins to increase.
# [3] = Plasma and tumour concentrations in mice bearing SW620 xenografts after intraperitoneal administration; assay type: in vivo
# IrS ISF cell line = experiment: cells; assay type: cell-based; conditions: Cricetulus griseus, 24 h, read-out: LC50 (the concentration of the active component that kills 50% of the cells)
# Text: The AA8, irs1SF and CXR3 cell lines were provided by Larry Thompson.
# Toxicity Assay—Clonogenic Survival Assay
# VC8 cell line [4] = experiment: Clonogenic survival assay, VC8 cell line (lacks BRCA2)
# Protocol: (§3) All cell lines in this study were grown in Dulbecco's modified Eagle's Medium (DMEM) with 10% Foetalbovine serum and penicillin (100 U/ml) and steptomycin sulphate (100 μg/mL) at 37° C. under an atmosphere containing 5% CO2.
# (§4) The cells were harvested by trypsinisation, counted and seeded at varying densities in 10 cm dishes in fresh medium in the absence of drug for colony formation.
# (§5) 7-10 days later the dishes were fixed with methanol:acetic acid 3:1 and stained with 0.4% crystal violet.
# (§6) Colonies were counted and the survival relative to 1% DMSO control treated cells calculated.
# VC8 cell line [5] = conditions: hamster, 24 h
# Protocol: as §3, §4, §5, §6
# PARP [6] = molecular target: T1, PARP; experiment: PARP activity assay in intact L1210 cells (20 minutes exposure before permeabilisation); assay type: cell-based; design: endogenous in cells; host or cells: L1210 cells, digitonin-permeabilised; conditions: exposed 20 minutes prior to permeabilisation
# Protocol: as §1
# PARP [7] = molecular target: T1, PARP; experiment: PARP activity in mouse peripheral blood lymphocytes after formula I-phosphate (10H antibody detection); assay type: in vivo; design: PARP activity in pbls and tumour homogenates from formula I-phospate treated mice; from tissue; host or cells: peripheral blood lymphocytes of treated mice; conditions: 10 mg/kg intraperitoneal, up to 24 hr
# Protocol: (§2) FIG. 6 is a pair of bar charts showing the blood and tumour pharmacokinetics and pharmacodynamics with formula I-phosphate at 1 mg/kg (upper) and 10 mg/kg (lower) in mice bearing SW620 xenografts;
# as §1, with “Briefly, tumour homogenates diluted to up to 1:1000 in isotonic buffer were incubated with 350 μM NAD for 6 min and blotted onto nitrocellulose membrane.” left out
# [8] = Solubility of the phosphate salt; assay type: physicochemical; conditions: phosphate salt vs parent compound
# PARP [9] = molecular target: T2, PARP; experiment: PARP activity in SW620 xenograft tumour homogenates after formula I-phosphate (10H antibody detection); assay type: in vivo, mice
# Protocol: as §2
# as §1, with “Briefly, tumour homogenates diluted to up to 1:1000 in isotonic buffer were incubated with 350 μM NAD for 6 min and blotted onto nitrocellulose membrane.” left out
# [10] = 10 mg/kg intraperitoneal, SW620 xenograft
smiles,measurement,setting,value
CN(C)Cc1ccc(-c2nc3cccc4c3n2CCNC4=O)cc1 [Formula III],"PARP inhibitory activity, formula I compared with formula III",PARP [1],no difference
same,PARP activity in the tumour,PARP [2],inhibits PARP activity in the tumour
same,time over which tumour shrinks to an undetectable size,SW620 xenografts; formula III 5 mg/kg daily×5 with temozolomide 68 mg/kg daily×5,around 15 days
same,further time tumour size remains undetectable,"SW620 xenografts; formula III 5 mg/kg daily×5 with temozolomide 68 mg/kg daily×5, then begins to increase",50 days
same,tumour outcome at autopsy,"SW620 xenografts; formula III 15 mg/kg daily×5 with temozolomide, end of the experiment",complete tumour regression
same,further time tumour size remains undetectable,"SW620 xenografts; formula III 15 mg/kg daily×5 with temozolomide, until the end of the experiment",80 days
same,distribution to tumour,[3]; [10],distributes well to the tumour
same,retention in tumour relative to plasma with time,[3]; [10],preferentially retained with time
same,CC50,IrS ISF cell line,100 nM
same,LC90 (concentration of active component that kills 90% of the cells),VC8 cell line [4],1200 nM
same,CC50,VC8 cell line [4]; read-out: LC50,43 nM
CNCc1ccc(-c2[nH]c3cc(F)cc4c3c2CCNC4=O)cc1 [Formula I],"PARP inhibitory activity, formula I compared with formula III",PARP [1],no difference
same,CC50,VC8 cell line [5],12 nM
same,"PARP inhibitory activity, formula I compared with formula III",PARP [6],more potent in intact cells
same,LC90 (concentration of active component that kills 90% of the cells),VC8 cell line [4],27 nM
CNCc1ccc(-c2[nH]c3cc(F)cc4c3c2CCNC4=O)cc1.O=P(O)(O)O [formula I-phosphate],PARP activity in pbls,PARP [7],< 50 % control
same,levels of formula I in plasma and tumour,"[3]; 1 mg/kg intraperitoneal, compared with 10 mg/kg",lower levels
same,plasma concentration of parent compound formula I,"[3]; 10 mg/kg intraperitoneal, 24 hr after administration",none could be detected
same,tumour concentration of parent compound formula I,"[3]; 10 mg/kg intraperitoneal, 24 hr after administration, SW620 xenograft",significant levels were detectable
same,plasma concentration of parent compound formula I,"[3]; 10 mg/kg intraperitoneal, thirty minutes after administration",highlevels
same,tumour concentration of parent compound formula I,"[3]; 10 mg/kg intraperitoneal, thirty minutes after administration, SW620 xenograft",highlevels
same,solubility relative to formula I,[8],increases the solubility
same,effect on PARP activity,"PARP [9]; 1 mg/kg intraperitoneal, compared with 10 mg/kg, pbls and tumour",less pronounced effect
same,PARP activity in tumour,"PARP [9]; 10 mg/kg intraperitoneal, up to 24 hr, SW620 xenograft",< 50 % control
